# Bridge positions count the residues as written; N and C are the ends. Square brackets hold non-standard residues; d marks the D form. Peptide text beside a SMILES is read from it.
# How the values were obtained:
# [1] = Peptide aggregation in LPS (ThT fluorescence); format: physicochemical; settings: peptide 20 μM, LPS 1 mg/mL, ThT 25 μM, 1 h incubation, ThT emission 482 nm
# Experimental: The peptides were incubated with LPS (1 mg/mL) at a concentration of 20 μM, and ThT (25 μM) was used as a fluorophore to measure aggregation.
# Figure 5 Aggregate formation in the interaction between peptides 9 (a), 12 (b), and 17 (c) (20 μM) and LPS (1 mg/mL) monitored by ThT fluorescence (25 μM). Peptide alone and ThT alone were used as controls.
# After 1 h, we evaluated the peptide aggregation measuring ThT fluorescence emission at 482 nm (slit width, 5 nm) after excitation at 450 nm (slit width, 10 nm). ThT spectra at 25 μM, and peptide alone at 20 μM were carried out as control.
# [2] = system: S. epidermidis ATCC 12228; format: cell-based, Staphylococcus epidermidis
# Summary of the method: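 MICs were determined by broth microdilution, with bacteria at a final 1 × 10^6 CFU/mL and peptides tested from 100 to 0.78 μM.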
# [3] = Thioflavin T aggregation in LUVs; format: physicochemical; settings: tested 5–50 μM, 25 °C, pH 7.4, ThT emission 482 nm; for peptide concentration at which oligomerization (ThT fluorescence plateau) was observed: DOPE/DOPG/CL (63/23/12) LUVs; for peptide concentration at which aggregation (increase of ThT fluorescence) was observed: DOPG/CL (58/42) LUVs
# From the text: We used large unilamellar vesicles (LUVs) made of phosphatidylethanolamine (DOPE), phosphatidylglycerol (DOPG), and cardiolipin (CL) (63/23/12) to mimic lipid composition of the cytoplasmic membrane of Gram-negative bacteria. Gram-positive membranes were otherwise mimicked using LUVs made of DOPG and CL (58/42).
# TEXT PRINTED IN THE PICTURE: (c) 9: DOPG/CL mimicking Gram-positive membrane: θ222/ θ208: 1.7 | (c) 12: DOPG/CL mimicking Gram-positive membrane: θ222/ θ208: 2.6 | (c) 17: DOPG/CL mimicking Gram-positive membrane: θ222/ θ208: 1.9 | (f) 9: DOPE/DOPG/CL mimicking Gram-negative membrane: θ222/ θ208: 1.8 | (f) 12: DOPE/DOPG/CL mimicking Gram-negative membrane: θ222/ θ208: 2.1 | (f) 17: DOPE/DOPG/CL mimicking Gram-negative membrane: θ222/ θ208: 1.7
# The fluorescent dye Thioflavin T (ThT) is widely used to quantify peptide aggregation in the presence of bacterial membranes represented by LUVs (Gram-positive, DOPG/CL, 58/42 ratio in moles; Gram-negative DOPG/DOPE/CL, 63/23/12 ratio in moles). Once lipid films were prepared as described above, they were hydrated with 100 mM NaCl, 10 mM Tris-HCl, […] ThT buffer, pH = 7.4, vortexed for 1 h, freeze-thawed six times, and extruded 10 times through polycarbonate membranes with 0.1 μm diameter pores.[80] Peptides were dissolved in water to have a stock solution of 2 mM. Peptide aggregation was quantified by treating LUVs with peptide concentrations of 5, 10, 15, 20, 30, and 50 μM. Fluorescence was measured before and after the addition of peptide at 25 °C using a Varian Cary Eclipse fluorescence spectrometer. ThT fluorescence emission was measured at 482 nm (slit width, 5 nm) after excitation at 450 nm (slit width, 10 nm). In the presence of aggregated peptides, ThT combines with them giving an excitation maximum at 450 nm and an increased emission at 482 nm.[62] Peptide aggregation was calculated as %A = (Ff – F0)/(Fmax – F0) × 100, where Ff indicates the value of fluorescence after peptide addition, F0 is the initial fluorescence in the absence of peptide, and Fmax is the fluorescence maximum obtained immediately after peptide addition.
# [4] = system: HaCaT cells (human immortalized keratinocytes); experiment: Cytotoxicity, MTT assay; format: cell-based
# Experimental: In particular, the cytotoxicity was evaluated by the 3-(4,5-dimethylthiazol-2-yl)-2,5-diphenyltetrazolium bromide (MTT) assay and is expressed as the percentage of viability of peptide-treated cells compared to that of untreated control cells. As expected, after 2 and 24 h treatments, the cell viability decreased in a concentration-dependent manner for all peptides (Figure 2).
# Figure 2 Viability of peptide-treated HaCaT cells evaluated by MTT assay at 2 h (a) and 24 h (b). All data are expressed as a percentage with respect to the untreated control cells and are the mean of three independent experiments ± standard error of the mean (SEM).
# The human immortalized keratinocytes HaCaT cells (AddexBio, San Diego, CA) were cultured in Dulbecco’s modified Eagle’s medium containing 4 mM glutamine (DMEMg), supplemented with 10% heat-inactivated fetal bovine serum (FBS) and 0.1 mg/mL of penicillin and streptomycin, at 37 °C and 5% CO2, in 25 or 75 cm^2 flasks.
# The quantification of cell viability was performed by the in vitro MTT [3-(4,5-dimethylthiazol-2-yl)-2,5-diphenyltetrazolium bromide] assay, as previously reported,[77] measuring the conversion of the soluble yellow dye MTT to insoluble purple formazan by mitochondrial dehydrogenases. More precisely, 4 × 10^4 HaCaT cells, suspended in DMEMg supplemented with 2% FBS without antibiotics, were plated in each well of the 96-well plate. After overnight incubation at 37 °C and 5% CO2, the medium of each well was replaced by DMEMg containing the peptide at different concentrations, as indicated. Controls were HaCaT cells not treated with the peptide. After 2 and 24 h of incubation at 37 °C and 5% CO2, the medium was discarded; 0.5 mg/mL of MTT in Hank’s buffer was added to each well, and the plate was incubated for further 4 h. Acidified isopropanol was then added to dissolve formazan crystals, and the absorbance of each well at 570 nm was measured using a microplate reader (Infinite M200; Tecan, Salzburg, Austria). The purple color intensity is directly proportional to the number of viable cells, which was expressed as a percentage compared to that of untreated control cells (100%).
SMILES,aggregation in the presence of LPS [1],MIC S. epidermidis ATCC 12228 [2],peptide concentration at which oligomerization (ThT fluorescence plateau) was observed [3],peptide concentration at which aggregation (increase of ThT fluorescence) was observed [3],"HaCaT cell viability ([4]; 2 h treatment, 25 μM, vs untreated control, mean of three independent experiments)","HaCaT cell viability ([4]; 2 h treatment, 50 μM, vs untreated control, mean of three independent experiments)","HaCaT cell viability ([4]; 24 h treatment (sentence continues from 50 μM), vs untreated control)","HaCaT cell viability ([4]; 25 μM, same profile after either 2 or 24 h)","HaCaT cell viability ([4]; 50 μM, same profile after either 2 or 24 h)"
CC[C@H](C)[C@H](NC(=O)[C@H](CCCNC(=N)N)NC(=O)[C@@H]1CCCCn2cc(nn2)C[C@H](NC(=O)[C@H](Cc2ccccc2)NC(=O)[C@H](Cc2c[nH]c3ccccc23)NC(=O)[C@@H]2CCCN2C(=O)[C@@H](NC(=O)[C@@H](N)Cc2ccccc2)C(C)C)C(=O)N[C@@H](CCCCN)C(=O)N[C@@H](Cc2ccccc2)C(=O)NC(CC(C)C)C(=O)N1)C(=O)N[C@@H](CC(C)C)C(N)=O (stereo in doubt) [compound 17],higher ability to aggregate,1.56 µM,10 µM,50 µM,60–70%,less than 40%,less than 20%,–,–
CC[C@H](C)[C@H](NC(=O)[C@H](CCCNC(=N)N)NC(=O)[C@@H]1CCC(=O)NCCCC[C@H](NC(=O)[C@H](Cc2ccccc2)NC(=O)[C@H](Cc2c[nH]c3ccccc23)NC(=O)[C@@H]2CCCN2C(=O)[C@@H](NC(=O)[C@@H](N)Cc2ccccc2)C(C)C)C(=O)N[C@@H](CCCCN)C(=O)N[C@@H](Cc2ccccc2)C(=O)N[C@H](CC(C)C)C(=O)N1)C(=O)N[C@@H](CC(C)C)C(N)=O [compound 12] (H-FVPWFKKF[dL]ERIL-NH2; lactam 6-10),lowest aggregation,3.12 µM,10 µM,30 µM,–,–,–,94%,60%

# Source: paper PMC8389922, “First-in-Class Cyclic Temporin L Analogue: Design, Synthesis, and Antimicrobial Assessment” (Journal of Medicinal Chemistry, 2021)
